{"source": "paper PMC9854566", "about": "“Antiamnesic Effects of Feralolide Isolated from Aloe vera Resin Miller against Learning Impairments Induced in Mice” (Antioxidants, 2023)", "key": {"[1]": {"target": "T1, butyrylcholinesterase (BuChE), equine (Equus caballus, UniProt P81908)", "T1 construct": "gene BCHE", "T1 sequence (P81908 whole entry)": "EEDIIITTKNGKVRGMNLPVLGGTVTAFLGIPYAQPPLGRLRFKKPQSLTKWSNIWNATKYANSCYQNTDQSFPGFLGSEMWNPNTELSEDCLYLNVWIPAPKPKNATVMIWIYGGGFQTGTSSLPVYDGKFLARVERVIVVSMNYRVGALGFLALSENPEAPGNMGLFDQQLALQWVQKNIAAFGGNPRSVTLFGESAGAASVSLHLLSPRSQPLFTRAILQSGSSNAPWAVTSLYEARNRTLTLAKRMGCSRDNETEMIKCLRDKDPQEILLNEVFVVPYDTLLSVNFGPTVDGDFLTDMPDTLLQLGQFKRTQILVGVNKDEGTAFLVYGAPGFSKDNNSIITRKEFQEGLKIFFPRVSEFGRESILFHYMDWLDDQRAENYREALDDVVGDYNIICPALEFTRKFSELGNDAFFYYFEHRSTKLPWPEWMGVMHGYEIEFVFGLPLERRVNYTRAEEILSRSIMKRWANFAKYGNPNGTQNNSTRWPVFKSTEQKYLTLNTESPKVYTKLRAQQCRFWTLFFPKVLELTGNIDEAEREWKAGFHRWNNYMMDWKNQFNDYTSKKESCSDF", "assay": "Ellman spectrophotometric assay ([…] nm)", "assay_type": "biochemical"}, "[2]": {"target": "acetylcholinesterase (AChE), electric eel, type VI-S (Electrophorus electricus, UniProt O42275)", "sequence (O42275 24-633)": "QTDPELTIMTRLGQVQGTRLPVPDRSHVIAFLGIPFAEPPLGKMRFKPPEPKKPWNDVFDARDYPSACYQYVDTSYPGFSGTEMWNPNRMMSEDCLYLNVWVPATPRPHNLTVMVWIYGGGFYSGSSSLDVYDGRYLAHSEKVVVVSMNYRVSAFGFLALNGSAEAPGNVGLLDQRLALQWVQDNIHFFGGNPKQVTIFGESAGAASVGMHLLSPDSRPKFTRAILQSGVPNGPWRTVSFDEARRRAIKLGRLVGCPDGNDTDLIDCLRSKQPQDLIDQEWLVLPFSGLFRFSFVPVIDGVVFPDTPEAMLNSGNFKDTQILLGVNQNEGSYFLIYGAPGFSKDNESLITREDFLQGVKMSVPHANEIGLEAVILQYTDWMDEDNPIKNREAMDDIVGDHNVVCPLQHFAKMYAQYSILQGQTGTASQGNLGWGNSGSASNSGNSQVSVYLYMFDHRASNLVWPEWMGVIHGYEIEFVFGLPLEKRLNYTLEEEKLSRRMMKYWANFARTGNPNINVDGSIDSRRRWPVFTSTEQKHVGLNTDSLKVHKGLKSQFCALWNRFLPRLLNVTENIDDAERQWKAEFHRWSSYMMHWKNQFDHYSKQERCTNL", "assay": "Ellman spectrophotometric assay ([…] nm)", "assay_type": "biochemical"}}}
{"smiles": "CC(=O)c1c(O)cc(O)cc1C[C@@H]1Cc2cc(O)cc(O)c2C(=O)O1", "note": "[feralolide]", "values": [{"measurement": "IC50", "setting": "[1]", "value": 151, "unit": "µM"}, {"measurement": "IC50", "setting": "[2]", "value": 160, "unit": "µM"}]}
